One test relates to BrdU-labelled MCMV DNA. Description: Staining of BrdU-labelled MCMV DNA in NIH/3T3 cells. Type of test: cell-based, murine cytomegalovirus. Here is the method: When infection of cells is performed with MCMV labelled with bromodeoxyuridine (BrdU), a clear reduction in BrdU-labelled genomes in TAT-I24-treated cells can be observed. It was speculated that this was due to the interaction of the peptide with the viral DNA, leading to the prevention of BrdU-antibody binding. This was further supported by the observation that the incubation of cells with TAT-I24 after fixation and permeabilization led to an impairment of BrdU-staining. As additional support for this concept, BrdU-labelled MCMV was adsorbed to NIH/3T3 cells at 4 °C in the absence or presence of 10 µM TAT-I24. Cells were then washed with ice-cold medium followed by transfer to 37 °C and fixation and permeabilization 30 min post-cold release. In one setting, cells were additionally treated with pepsin for 20 min at 37 °C to degrade the peptide.
NIH/3T3 cells were seeded at a density of 4 × 10^4 cells/well into ibiTreat eight-well chambers (ibidi, Gräfelfing, Germany). Bromodeoxyuridine (BrdU)-labelled virus was adsorbed to cells in the absence or presence of 10 µM TAT-I24 as described before. Pepsin treatment was performed by incubation of cells after fixation, permeabilization and denaturation with Pepsin Reagent, Ready to Use, Antigen Retriever (Merck; Schnelldorf, Germany) for 20 min. Cells were then washed twice with 1xTBE followed by three washes with PBS. […]

The subject of test [1] is host-cell transcripts in NIH/3T3 cells infected with UV-inactivated MCMV. Description: Host-cell transcript levels in cells infected with UV-irradiated MCMV. The conditions noted are these: UV-inactivated MCMV MOI 2.5, 10 µM, 2 h post-infection, three independent experiments.

These results are taken from publication PMC9267059, “Selective Inhibition of Murine Cytomegalovirus Viral Gene Expression by the Antiviral Peptide TAT-I24” (International Journal of Molecular Sciences, 2022).

GRKKRRQRRRPPQCLAFYACFC [TAT-I24]: the “BrdU-labelled genomes seen in cells” value in the test with BrdU-labelled MCMV DNA (10 µM during adsorption at 4 °C, 30 min post-cold release, no pepsin) is reported as “almost no BrdU-labelled genomes”. In the test with BrdU-labelled MCMV DNA (10 µM during adsorption, pepsin 20 min at 37 °C after fixation and permeabilization), the “BrdU-antibody staining after post-fixation pepsin treatment” value is listed as “clear appearance of a punctate pattern”. Further, in test [1], the Ccl5 transcript levels result is “significantly reduced”, the Ccl7 transcript levels entry was “significantly reduced” and the Cxcl10 transcript levels result is on record as “significantly reduced”.
